Results on two compounds are retold here after patent US20230337664A1, “FRUIT FLY CONTROL” (MACQUARIE UNIVERSITY, priority 2020, published 2023).

In assay [1] the test system is Bactrocera tryoni. Description: Oviposition assay for Bactrocera tryoni. In kind it is in vivo. The conditions noted are these: 1.17% w/v in agar plate with γ-octalactone; P<0.0001. The method, then: Agar plates with oviposition stimulant (OS; γ-octalactone) with 1-octanol (1.17% w/v) or 1-nonanol (1.17% w/v) were used as oviposition substrate to determine the oviposition deterrent activity of 1-octanol and 1-nonanol to gravid female B. tryoni. Agarose (0.8 g in 100 ml water) was melted in a microwave, was cooled to 40° C. and appropriate amount of the oviposition stimulant in combination with 1-octanol or 1-nonanol was added. This mixture was poured into Petri plates and cooled at 0° C. in a refrigerator. This was done to enhance setting of the mixture and lower volatile vaporization. Oviposition substrates were prepared freshly when required. Oviposition plate containing OS alone (control), OS+1-octanol or OS+1-nonanol was provided to gravid females (50 gravid females; 15-20 days old) in cages (30×30×30 cm) to lay eggs. The eggs laid in each plate was enumerated under a stereo-dissecting microscope (Olympus, Japan). Thirty replicates for each test compound and control were carried out.

Assay [2] concerns Ceratitis capitata antenna. Description: Standalone EAG, Ceratitis capitata. The conditions noted are these: both sexes; ten replicates per compound per sex. From the text:
For the […], Ceratitis capitata, a standalone EAG was used for antennal recordings. Electroconductive gel (Spectra 360, Parker Laboratories Inc., USA) were applied to the arms of the metal electrodes and the head of male or female fly, separated from the body was affixed onto one of the indifferent metal arm. The recording arm with gel was made to touch a single or both the antenna of the fly. The antennal preparation was inserted to the EAG probe holder that was under filtered and humidified air the same as described above. The EAG signals were passed through a high impedance amplifier (UN-06, Syntech, Hilversum, The Netherlands). 1-Octanol or 1-nonanol of known concentrations were tested individually. The compounds (10 ul) were dispensed on a filter paper and were placed into a pasture pipette. The prepared pipettes were fixed tubing from the stimulus controller (CS-55, Syntech, The Netherlands) and the stimulus was puffed over the antennal preparation. The response was record using EAGPro software (Syntech, The Netherlands). Ten replicates were recorded for each compound per sex, with EAG activity confirmed in 100% of trials presenting 1-octanol or 1-nonanol for both sexes of C. capitata (FIG. 10E).

The subject of assay [3] is Bactrocera kraussi antenna. In words: GC-EAG responses, Bactrocera kraussi. The conditions noted are these: both sexes. From the text: (§1) Coupled Gas Chromatography-Electroantennography (GC-EAG) recordings were made with Ag-glass microelectrodes filled with electroconductive gel (Spectra 360, Parker Laboratories Inc., USA). The head of male or female flies (i.e., Bactrocera tryoni, Bactrocera jarvisi, Bactrocera kraussi, and Zeugodacus cucumis) was separated from the body with a microscalpel and was placed on the tip of the indifferent electrode, making sure the base of the head is affixed to the gel in the electrode. The tip of the insect antenna was made to touch the recording electrode and was slightly inserted into the gel to stabilize the antenna. The mounted heads were under charcoal filtered and humidified air flow (2400 mL min-1) controlled by a flow controller (Stimulus Controller CS-55, Syntech, Hilversum, The Netherlands). The signals were passed through a high impedance amplifier (UN-06, Syntech, Hilversum, The Netherlands). 1-octanol or 1-nonanol were tested individually or as mixture of known concentration. After injection of compounds, the effluent from the GC column was simultaneously directed to the antennal preparation and the GC detector. […] The outputs from the EAG amplifier and the FID were monitored simultaneously and analysed using the GCEAD 2014 software v1.2.5 (Syntech, The Netherlands).

For a further assay, the system named is Zeugodacus cucumis. In words: Oviposition assay for Zeugodacus cucumis. It counts as in vivo. The settings on record: 1.17% w/v with zucchini juice on agar plate; P<0.0001. The method, then:
Agar plates applied with oviposition stimulant (OS: fresh zucchini juice) with 1-octanol (1.17% w/v) or 1-nonanol (1.17% w/v) were used as oviposition substrate to determine the oviposition deterrent activity of 1-octanol and 1-nonanol to gravid female Z. cucumis. Agar (0.8 g in 100 ml water) was melted in a microwave, was cooled to 40° C. and poured into Petri plates and cooled at 0° C. Oviposition stimulant alone or OS mixed with 1-octanol or 1-nonanol (50 ul) was spread on agarose plates. Oviposition substrates were prepared freshly when required. Oviposition plate containing OS alone (control), OS+1-octanol or OS+1-nonanol was provided to gravid females (20 gravid females; 15-20 days old) in cages (30×30×30 cm) to lay eggs. The eggs laid in each plate was enumerated under a stereo-dissecting microscope (Olympus, Japan). Twenty four replicates for each test compound and control were carried out.

Assay [4] deals with Bactrocera tryoni antenna. In words: GC-EAG responses, Bactrocera tryoni. The settings on record: both sexes.
Source text: as §1

A further assay relates to Ceratitis capitata. Description: Oviposition assay for Ceratitis capitata. The conditions noted are these: grapes dipped in 1.17% w/v solution; P<0.0001. It counts as in vivo. From the text: Red seedless grapes from IGA express (Murdoch University, Perth) washed with warm water thrice and dried with paper towel were used as oviposition substrate. Solution of 1-octanol (1.17% w/v) or 1-nonanol (1.17% w/v) were made by mixing appropriate amounts of 1-octanol or 1-nonanol in water with ethanol as an emulsifier. Washed grapes of equal size, dipped into the above solutions for 15-20 sec, was provided to gravid females (50 gravid females; 15-20 days old) in cages (30×30×30 cm) to lay eggs. Grapes that were dipped in water and emulsifier mixture was used as control. Eggs laid in each grapes was enumerated under a stereo-dissecting microscope (Olympus, Japan). Forty replicates for each test compound and control were carried out.

Another assay has as its system Bactrocera kraussi. In words: Oviposition assay for Bactrocera kraussi. In kind it is in vivo. The conditions noted are these: orange segments dipped in 1.17% w/v solution; P<0.0001. From the text:
Oranges from Woolworths (Marsfield, NSW) were washed with warm water and dried with paper towel. They were peeled and segmented and a single segment was used as oviposition substrate. Solution of 1-octanol (1.17% w/v) or 1-nonanol (1.17% w/v) were made by mixing appropriate amounts of 1-octanol or 1-nonanol in water with ethanol as an emulsifier. Orange segments of equal size, dipped into the above solutions for 15-20 sec, was provided to gravid females flies (20 gravid females; 20 days old) in cages (30×30×30 cm) to lay eggs. Orange segments dipped in water and emulsifier mixture was used as control. Eggs laid in each orange segment was enumerated under a stereo-dissecting microscope (Olympus, Japan). Twelve replicates for each test compound and control were carried out.

The test system of another assay is Bactrocera jarvisi. In words: Oviposition assay for Bactrocera jarvisi. In kind it is in vivo. The conditions noted are these: 1.17% in agar plate with mango juice; P<0.0001. The method, then:
Agar plates with oviposition stimulant (MJ: Mango Juice) with 1-octanol (1.17%) or 1-nonanol (1.17%) were used as oviposition substrate to determine the oviposition deterrent activity of 1-octanol and 1-nonanol to gravid female B. jarvisi. Agar (0.8 g in 100 ml of diluted mango juice with water; 1:1) melted in a microwave, was cooled to 40° C. and appropriate amount of 1-octanol or 1-nonanol was added. This mixture was poured into Petri plates and cooled to 0° C. in a refrigerator. This was done to enhance setting of the mixture and lower volatile vaporization. Oviposition substrates were prepared freshly when required. Oviposition plate containing MJ alone (control), MJ+1-octanol or MJ+1-nonanol was provided to gravid females (20 gravid females; 15-20 days old) in cages (30×30×30 cm) to lay eggs. The eggs laid in each plate was enumerated under a stereo-dissecting microscope (Olympus, Japan). Twenty four replicates for each test compound and control were carried out.

For assay [5], the system named is Bactrocera jarvisi antenna. Description: GC-EAG responses, Bactrocera jarvisi. The settings on record: both sexes.
Source text: as §1

The test system of assay [6] is Zeugodacus cucumis antenna. Description: GC-EAG responses, Zeugodacus cucumis. The conditions noted are these: both sexes.
Source text: as §1

Assay [7] deals with Bactrocera tryoni. Description: Four-arm olfactometer bioassay. In kind it is in vivo. The conditions noted are these: arm containing C1 vs without. The protocol:
An acrylic four-arm olfactometer (120 mm dia.) was used to measure behavioural responses of Bactrocera tryoni males/females to food (yeast hydrolysate) with or without 1-octanol (EAG-active compound). Prior to each experiment, acrylic components were washed with a non-ionic detergent solution, rinsed with ethanol solution and distilled water, and left to air dry. Experiments were conducted in a controlled environment room (25±2° C., 60% RH). The central area was fitted with a filter-paper base (Whatmann No. 1, 12 cm dia.) to provide traction for the walking insects. The room was illuminated from above by uniform lighting from white fluorescent light bulbs to negate directional bias. Individual flies (10-15 days old) were introduced through a hole below the olfactometer. Each fly was given 5 min to acclimatize in the olfactometer, after which the experiment was run for 10 min for each replicate. The olfactometer was rotated 90° after each replicate to eliminate any directional bias in the room. Air was drawn through the central hole at 200 ml min-1 and subsequently exhausted from the room. The central arena of the olfactometer was divided into four discrete odour fields corresponding to each of four inlet arms. A choice test was performed that used two different opposite arms. […] Fly activity in each olfactometer was video recorded. The time spent in each arm was recorded using BORIS software. […]

Assay [8] concerns Bactrocera tryoni antenna. In words: GC-EAD electrophysiology of ant extracts. The conditions noted are these: peak in Head and Headspace volatiles. From the text: Coupled Gas Chromatography-Electroantennography (GC-EAG) recordings were made with Ag-glass microelectrodes filled with electroconductive gel (Spectra 360, Parker Laboratories Inc., USA). The head of male or female Bactrocera tryoni, anaesthetized by chilling, was separated from the body with a microscalpel and was placed on the tip of the indifferent electrode, making sure the base of the head is affixed to the gel in the electrode. The tip of the insect antenna was made to touch the recording electrode and was slightly inserted into the gel to stabilize the antenna. The signals were passed through a high impedance amplifier (UN-06, Syntech, Hilversum, The Netherlands) and analysed using a software package provided by Syntech. Each extract-cuticular compounds, Dufour's glands, poison glands, trail, headspace, and head extractions were tested individually. After injection of extraction samples, the effluent from the GC column was simultaneously directed to the antennal preparation and the GC detector. Separation of compounds was achieved on an Agilent Gas Chromatography system equipped with a column injector and a flame ionization detector (FID), using an Agilent HP-5 column (30 m×0.32 mm, 0.25 μm film). […] The outputs from the EAG amplifier and the FID were monitored simultaneously and analysed using the Syntech software package. […]

Assay [9] concerns Bactrocera tryoni. In words: Mating assay (mating disruption). It counts as in vivo. The settings on record: of 15 trials; 5 microliters on filter paper, air pumped into arena; P<0.00001 vs control. The method, then: Mating assays were carried out at dusk, the normal mating time of B. tryoni. A pair of 15-day old male and female flies were introduced into a behavioural arena 30 min before the onset of dusk. They were allowed to acclimatize for 20 min after which 1-octanol or filtered air was pumped through the inlet of the arena. Five microliters of 1-octanol was applied on a clean filter paper. This filter paper was placed into an air-tight vessel with an inlet and outlet. Charcoal filtered air (1 litre per hour) was pumped into the vessel from the inlet and the outlet was connected to the inlet of the arena with flies. Air from a vessel with clean filter paper was used as control. Fifteen pairs were set up for both 1-octanol treatment and air control. The activity of flies was recorded overnight, and the video was analysed using BORIS software. Collected data included (1) whether a pair mated, (2) Number of copulation attempts, and (3) copula duration.

On to `CCCCCCCCCO` [1-nonanol], for which the “Eggs laid on oviposition plates vs control” value with Bactrocera tryoni [1], with Zeugodacus cucumis and with Bactrocera jarvisi was “significantly different from control” in each case. The “Trials with EAG activity” value in assay [2], in [3], in [4], in assay [5] and in [6] was 100 % of trials throughout. For the same compound, the “Eggs laid vs control” value with Ceratitis capitata and in the assay on Bactrocera kraussi was “significantly different from control” each time.
Consider `CCCCCCCCO` [1-octanol], for which the “Eggs laid on oviposition plates vs control” value with Bactrocera tryoni [1], in the assay with Zeugodacus cucumis and with Bactrocera jarvisi was “significantly different from control” throughout. In addition, the “Time spent in olfactometer arm” value with Bactrocera tryoni [7] is on record as “less time”. Besides, the “Response in fly's antenna (GC-EAD)” value in [8] is “trigger response”. Moreover, the “Trials with EAG activity” value in assay [2], in [3], in assay [4], in [5] and in [6] was 100 % of trials throughout. In addition, the “Trials in which flies attempted mating” value in the assay with Bactrocera tryoni [9] is “none”. In addition, the “Trials with successful mating” value with Bactrocera tryoni [9] is on record as “none”. Besides, the “Eggs laid vs control” value in the assay with Ceratitis capitata and in the assay with Bactrocera kraussi was “significantly different from control” in each case.
